Assay results reported in patent US20030118627A1 (DABUR RESEARCH FOUNDATION, priority 2001, published 2003).

Experiments:
[1] = system: Hep2; assay: MTT cytotoxicity assay, Hep2 larynx; type: cell-based; conditions: Homo sapiens, HEp-2, 24 h, read-out: ED50 values of cytotoxicity
Description: (§1) Briefly, a […] MTT cytotoxicity assay was performed, which is based on the principle of uptake of MTT (3-(4,5-dimethylthiazol-2-yl)-2,5-diphenyl tetrazolium bromide), a tetrazolium salt, by the metabolically active cells where it is metabolized by active mitochondria into a blue colored formazan product that is read spectrophoto-metrically. MTT was dissolved in phosphate buffered saline with a pH of 7.4 to obtain an MTT concentration of 5 mg/ml; the resulting mixture was filtered through a 0.22 micron filter to sterilize and remove a small amount of insoluble residue. For each type of tumor cell, 20,000 to 50,000 cells were seeded in a 96-well culture plate and incubated with the combination in a CO2 incubator for 24 hours. […] The assay was terminated after 24 hours by adding 100 ug (20 ul) of MTT to each well, then incubating for additional one hour, and finally adding 50 ul of 10% SDS-0.01N HCl to each well to lyse the cells and dissolve formazan. After incubating for one hour, the plate was read spectrophotometrically at 540 nm and the percentage cytotoxicity calculated.

[2] = system: Swiss albino mice; conditions: both, mouse, in vivo, po, 15 days
Description: Acute toxicity studies were performed using the oral route of administration.
A batch of 5 female and 5 male mice each was administered the test substance by oral route. […] Another batch of 5 female and 5 male served as control.
Observations were made three times on the day of dosing and twice daily thereafter for the remainder of 14 days or until reversible toxic signs or symptoms subsided. All gross visible toxic signs and symptoms were recorded. Body weights were recorded prior to dosing and weekly thereafter.

[3] = system: KB; assay: MTT cytotoxicity assay, KB oral; type: cell-based; conditions: Homo sapiens, 24 h, read-out: ED50 values of cytotoxicity
Description: as §1

[4] = system: L132; assay: MTT cytotoxicity assay, L132 lung; type: cell-based; conditions: Homo sapiens
Description: as §1

[5] = system: 293; assay: MTT cytotoxicity assay, 293 kidney; type: cell-based; conditions: Homo sapiens, HEK293, 24 h, read-out: ED50 values of cytotoxicity
Description: as §1

[6] = system: INT 407; assay: MTT cytotoxicity assay, INT 407 intestine; type: cell-based; conditions: Homo sapiens, 24 h, read-out: ED50 values of cytotoxicity
Description: as §1

[7] = system: PA 1; assay: MTT cytotoxicity assay, PA 1 ovary; type: cell-based; conditions: Homo sapiens
Description: as §1

[8] = system: MCF7; assay: MTT cytotoxicity assay, MCF7 breast; type: cell-based; conditions: Homo sapiens
Description: as §1

[9] = system: U87MG; assay: MTT cytotoxicity assay, U87MG glioblastoma; type: cell-based; conditions: Homo sapiens, U-87 MG, 24 h, read-out: ED50 values of cytotoxicity
Description: as §1

[10] = system: Miapaca2; assay: MTT cytotoxicity assay, Miapaca2 pancreas; type: cell-based; conditions: Homo sapiens
Description: as §1

[11] = system: MOLT 4; assay: MTT cytotoxicity assay, MOLT 4 leukemia; type: cell-based; conditions: Homo sapiens
Description: as §1

[12] = system: PTC; assay: MTT cytotoxicity assay, PTC colon; type: cell-based; conditions: Homo sapiens
Description: as §1

[13] = system: DU145; assay: MTT cytotoxicity assay, DU145 prostate; type: cell-based; conditions: Homo sapiens
Description: as §1

[14] = 1.0 mM, read-out: Percent cytotoxicity
[15] = 2.5 mM, read-out: Percent cytotoxicity
[16] = 4 mM, read-out: Percent cytotoxicity
[17] = 5 mM, read-out: Percent cytotoxicity
[18] = 10 mM, read-out: Percent cytotoxicity
[19] = 24 h, read-out: ED50 values of cytotoxicity

CCOC(=O)C1CCC(=O)N1C(O)C(C)=O (stereo not drawn) [MGC-7, N-(1-hydroxy-2-ketopropyl)-ethylpyroglutamate]
IC50 [1]: 2500 ± 1100 µM
safe dose [2]: 100 mg
IC50 [3]: 1850 ± 600 µM
cytotoxicity at 1000 µM [4, 14]: 0%
cytotoxicity at 2500 µM [4, 15]: 0%
cytotoxicity at 4000 µM [4, 16]: 0%
cytotoxicity at 5000 µM [4, 17]: 0%
cytotoxicity at 10000 µM [4, 18]: 0%
IC50 [4, 19]: > 5000 µM
IC50 [5]: 3100 ± 1300 µM
IC50 [6]: 2700 ± 1200 µM
IC50 ([7]; 24 h, PA 1 Ovarian, read-out: ED50 values of cytotoxicity): 1200 ± 200 µM
cytotoxicity at 1000 µM ([7]; PA 1 Ovary, 1.0 mM, read-out: Percent cytotoxicity): 45.6 ± 1.9%
cytotoxicity at 2500 µM ([7]; PA 1 Ovary, 2.5 mM, read-out: Percent cytotoxicity): 58.4 ± 4.7%
cytotoxicity at 4000 µM ([7]; PA 1 Ovary, 4 mM, read-out: Percent cytotoxicity): 65.5 ± 3.9%
cytotoxicity at 5000 µM ([7]; PA 1 Ovary, 5 mM, read-out: Percent cytotoxicity): 79.9 ± 5.2%
cytotoxicity at 10000 µM ([7]; PA 1 Ovary, 10 mM, read-out: Percent cytotoxicity): 84.9 ± 5.4%
IC50 ([8]; MCF7, 24 h, MCF 7 Breast, read-out: ED50 values of cytotoxicity): 2800 ± 1100 µM
cytotoxicity at 1000 µM ([8]; MCF7 breast, 1.0 mM, read-out: Percent cytotoxicity): 7 ± 1.3%
cytotoxicity at 2500 µM ([8]; MCF7 breast, 2.5 mM, read-out: Percent cytotoxicity): 10 ± 2.5%
cytotoxicity at 4000 µM ([8]; MCF7 breast, 4 mM, read-out: Percent cytotoxicity): 69 ± 3.2%
cytotoxicity at 5000 µM ([8]; MCF7 breast, 5 mM, read-out: Percent cytotoxicity): 85 ± 4.5%
cytotoxicity at 10000 µM ([8]; MCF7 breast, 10 mM, read-out: Percent cytotoxicity): 83 ± 4.5%
IC50 [9]: 1840 ± 600 µM
cytotoxicity at 1000 µM ([10]; MIA PaCa-2, 1.0 mM, read-out: Percent cytotoxicity): 0%
cytotoxicity at 2500 µM ([10]; MIA PaCa-2, 2.5 mM, read-out: Percent cytotoxicity): 28 ± 1.5%
cytotoxicity at 4000 µM ([10]; MIA PaCa-2, 4 mM, read-out: Percent cytotoxicity): 89 ± 2.3%
cytotoxicity at 5000 µM ([10]; MIA PaCa-2, 5 mM, read-out: Percent cytotoxicity): 88 ± 4.1%
cytotoxicity at 10000 µM ([10]; MIA PaCa-2, 10 mM, read-out: Percent cytotoxicity): 85 ± 4.1%
IC50 ([10]; MIA PaCa-2, 24 h, read-out: ED50 values of cytotoxicity): 2400 ± 1000 µM
IC50 ([11]; 24 h, Molt 4 Leukemia, read-out: ED50 values of cytotoxicity): 1500 ± 200 µM
cytotoxicity at 1000 µM ([11]; MOLT 4 Leukemia, 1.0 mM, read-out: Percent cytotoxicity): 39.4 ± 2.7%
cytotoxicity at 2500 µM ([11]; MOLT 4 Leukemia, 2.5 mM, read-out: Percent cytotoxicity): 58.5 ± 3.8%
cytotoxicity at 4000 µM ([11]; MOLT 4 Leukemia, 4 mM, read-out: Percent cytotoxicity): 59.1 ± 4.3%
cytotoxicity at 5000 µM ([11]; MOLT 4 Leukemia, 5 mM, read-out: Percent cytotoxicity): 64.3 ± 4.9%
cytotoxicity at 10000 µM ([11]; MOLT 4 Leukemia, 10 mM, read-out: Percent cytotoxicity): 73.4 ± 2%
cytotoxicity at 1000 µM [12, 14]: 34.3 ± 1.9%
cytotoxicity at 2500 µM [12, 15]: 54.3 ± 4.9%
cytotoxicity at 4000 µM [12, 16]: 65.9 ± 4.8%
cytotoxicity at 5000 µM [12, 17]: 78.2 ± 3.9%
cytotoxicity at 10000 µM [12, 18]: 82.2 ± 6.1%
IC50 [12, 19]: 2400 ± 500 µM
cytotoxicity at 1000 µM ([13]; DU-145, 1.0 mM, read-out: Percent cytotoxicity): 56 ± 5.9%
cytotoxicity at 2500 µM ([13]; DU-145, 2.5 mM, read-out: Percent cytotoxicity): 65 ± 2.9%
cytotoxicity at 4000 µM ([13]; DU-145, 4 mM, read-out: Percent cytotoxicity): 78.4 ± 6.9%
cytotoxicity at 5000 µM ([13]; DU-145, 5 mM, read-out: Percent cytotoxicity): 83 ± 4.9%
cytotoxicity at 10000 µM ([13]; DU-145, 10 mM, read-out: Percent cytotoxicity): 89 ± 6.1%
IC50 ([13]; DU-145, 24 h, read-out: ED50 values of cytotoxicity): 850 ± 300 µM
